Laboratory results published in patent US11033538B2, “Dosing regimens for the treatment of lysosomal storage diseases using pharmacological chaperones” (Amicus Therapeutics, Inc., priority 2007, dated 2021).
Like-named read-outs stand apart in the source and are kept apart here. Marks after values point to notes of the source that are not given here.

Tests used:
healthy male volunteers = test system: healthy male volunteers
Procedure: Safety was determined by evaluating vital signs, laboratory parameters (serum chemistry, hematology, and urinalysis), ECGs, physical examination and by recording adverse events during the Treatment Period.
Adverse events were coded using the MedDRA version 7.0 dictionary and summarized by treatment for the number of subjects reporting the adverse event and the number of adverse events reported. A by-subject adverse event data listing including verbatim term, coded term, treatment group, severity, and relationship to treatment was provided. Concomitant medications and medical history were listed by treatment.

GL-3 [1] = experiment: Example 5, kidney GL-3 levels by electron microscopy; assay type: in vivo, human
Procedure: Eight patients in the study received an ascending dose of 25, 100, and then 250 mg b.i.d. over 6 weeks, followed by 50 mg/day for the remainder of the study.
(§1) Kidney GL-3 levels were assessed by an independent expert using electron microscopy.

GL-3 [2] = experiment: Oral administration of Amigal to mice that produce defective human α-GAL, GL-3; assay type: in vivo
Procedure: as §1

α-GAL = assay type: in vivo, human
Procedure: (§2) Four male patients received a single 150 mg Q.O.D for 12 weeks (Group B); while five male patients received 150 mg Q.O.D. for 24 weeks (Group C). Finally nine female patients were randomized to receive one of three dosages: 50, 150 or 250 mg Q.O.D for 12 weeks (Group D) (FIG. 8).
Enzymatic activity of α-Gal in leukocytes (white blood cells; WBCs) of the patients was measured as a percentage of the average α-Gal activity in white blood cells of 15 healthy volunteers. α-GAL activity was assessed in fractionated tissue obtained from biopsies, and in blood leukocytes and plasma (from blood collected at baseline and every month).

GL-3 [3] = experiment: Example 6, kidney biopsy GL-3 histology; assay type: in vivo, human
Procedure: as §2
Kidney biopsies were performed at baseline, 12 weeks and 24 weeks post-treatment and evaluated for GL-3 deposits in various renal cells. GL-3 presence in the tissue was examined histologically as well as through the use of mass spectroscopy. Light microscopic analysis of kidney biopsies was performed, wherein the accumulation of GL-3 in the tissue was classified in a manner similar to the classification analysis performed in Kidney International, Vol. 62 (2002), pp. 1933-1946 which is hereby incorporated by reference. Cells were classified as containing no GL-3 accumulation (“0”); mild GL-3 accumulation (“1”); moderate GL-3 accumulation (“2”); or severe GL-3 accumulation (“3”).
Kidney GL-3 levels were assessed using histological and mass spectroscopic analysis. Kidney biopsies were examined in four of the “good” responders, two of the “moderate” responders, and two of the “non” responders. Accumulation of GL-3 was examined in three different kidney cell types: interstitial capillaries, distal tubules, and podocytes.

Fabry patients = experiment: Example 6, self-reported Fabry symptoms; assay type: in vivo, human
Description: Patients self-reported changes in symptoms at the end of 12 or 24 week treatment period to evaluate, inter alia, reduction in acroparaesthesia. This may be evidence of clearance of GL-3 in the microvasculature of peripheral nerve cells.

GL-3 [4] = experiment: Example 11, GL-3 levels by LC-MS/MS in hR301Q GLA Tg/KO mice, daily vs less frequent dosing; assay type: in vivo; settings: 300 mg/kg in drinking water, 4 weeks; skin, heart, kidney, plasma
Procedure: Lysates were prepared from skin, heart, kidney and plasma. GL-3 levels were measured by LC-MS/MS (expressed in mg/g tissue weight or mg/mL plasma). […] Each bar represents the mean±SEM of 10-16 mice/group.

GL-3 [5] = experiment: Example 15, qualitative GL-3 in glomerular cells; assay type: in vivo, human; settings: 12 months of DGJ
Procedure: GL-3 changes in podocytes, endothelial cells, and mesangial cells, and glomerular sclerosis, were assessed qualitatively by the same 3 pathologists blinded to treatment/visit.

[6] = test system: patients with Fabry disease; experiment: Example 15, echocardiography; assay type: in vivo, human; settings: for decrease in interventricular septal wall thickness from baseline: up to 24 months
Procedure: Left ventricular mass index, left posterior wall thickness, diastolic, interventricular septum thickness, diastolic and other parameters were assessed through blinded, centralized evaluation. The baseline visit of extension study AT1001-041/NCT01458119 was used as the last assessment.

[7] = test system: patients with Fabry disease; experiment: Example 15, Gastrointestinal Symptoms Rating Scale; assay type: in vivo, human
Procedure: Patient-reported outcomes were assessed using the Gastrointestinal-Symptoms-Rating-Scale (GSRS), Short Form-36v2TM and Brief-Pain-Inventory-Pain-Severity-Component.

[8] = test system: patients with Fabry disease; experiment: Example 15, safety analysis and adverse events; assay type: in vivo, human
Description: Randomized patients receiving ≥1 dose were included in the safety analysis, which comprised vital signs, physical exams, electrocardiograms, clinical labs, and adverse events.

[9] = All Patients, OLE DGJ treatment, (95% CI)
[10] = Patients with Symptoms at BL, OLE DGJ treatment, (95% CI)
[11] = Patients with Symptoms at BL, Stage 1
[12] = open-label-extension, 6/57 patients

OC[C@H]1NC[C@H](O)[C@@H](O)[C@H]1O [DGJ, (2R,3S,4R,5S)-2-(hydroxymethyl) piperdine-3,4,5-triol]
safety and tolerability (healthy male volunteers; 50 mg b.i.d. and 150 mg b.i.d., 7 days): safe and well tolerated
adverse events (AEs) (healthy male volunteers; 50 mg b.i.d. or 150 mg b.i.d.): no subject presented with AEs
tolerability (healthy male volunteers; 50 and 150 mg twice daily for 7 days): generally well-tolerated at all doses
vital sign, ECG, physical examination (healthy male volunteers; 50 or 150 mg b.i.d.): No clinically relevant abnormality occurred in any vital sign, ECG, or physical examination parameter
serious adverse events (healthy male volunteers; any treatment group): no serious adverse events
decrease of GL-3 levels in other kidney cell types including interstitial capillaries (GL-3 [1]; both patients): less than 1 unit
kidney GL-3 (mesangial cells, glomerular endothelium, distal tubules) (GL-3 [1]; one patient, 12 weeks of treatment): observed decrease in GL-3 in multiple cell types of the kidney of one patient
kidney GL-3 (same cell types) (GL-3 [1]; second patient, 24 weeks, not independently conclusive): decrease of GL-3 levels in the same kidney cell types
GL-3 after oral administration (GL-3 [2]): GL-3 reductions observed
mean increase in WBC α-Gal activity (α-GAL; eleven good responders, male, pre vs post treatment): 630%
mean increase in leukocyte α-Gal activity (α-GAL; four moderate responders, male): 170%
number of good responders (α-Gal activity) (α-GAL; male patients, Groups A-C): eleven
number of moderate responders (α-Gal activity) (α-GAL; male patients, Groups A-C): four
number of non responders (α-Gal activity) (α-GAL; male patients, Groups A-C): two
mean increase in WBC α-Gal activity compared to baseline (α-GAL; nine female patients, Group D (50, 150 or 250 mg Q.O.D, 12 weeks)): 146%
leukocyte or kidney α-Gal activity (α-GAL; non responders, male): None of the “non” responders exhibited any overall increase
mean increase in kidney α-Gal activity (α-GAL; one moderate responder, male): 100%
mean increase in kidney α-Gal activity (α-GAL; six of the good responders, male): 1090%
distal tubule GL-3 (histology) (GL-3 [3]; male good responders): three of the good responders experienced a decrease in GL-3
interstitial capillary GL-3 (histology) (GL-3 [3]; male good responders): one patient displayed a decrease in interstitial capillary GL-3
overall GL-3 levels in kidney biopsies (GL-3 [3]; male good responders): two of the good responders showed a decrease in GL-3
podocyte GL-3 (histology) (GL-3 [3]; male good responders): all four good responders experienced no change
overall GL-3 levels in kidney biopsies (GL-3 [3]; male moderate responders): two patients showed a decrease in GL-3 levels
overall GL-3 levels in kidney biopsies (GL-3 [3]; male non-responders): One non-responders showed a decrease in GL-3 levels
self-reported symptoms (Fabry patients; four female expected good responders): decreases in pain
self-reported symptoms (Fabry patients; seven male good responders): improved gastrointestinal function and a decrease in pain
GL-3 levels by LC-MS/MS, less frequent (4 days on/3 days off) vs daily dosing (GL-3 [4]): greater reduction in GL-3 levels
samples with increases in glomerular cell GL-3 (GL-3 [5]): None of the samples had increases
biopsies with decrease in glomerular podocyte GL-3 (GL-3 [5]; 5 of 23 biopsies): 22%
biopsies with decrease in endothelial cell GL-3 (GL-3 [5]; 6 of 23 biopsies): 26%
biopsies with decrease in mesangial cell GL-3 (GL-3 [5]; 11 of 23 biopsies): 48%
LVMi change from baseline (±SD) ([6]; 30/36 months of treatment, ±21.5): −7.8 g/m^2
LVMi change from baseline ([6]; 30/36 months, patients with baseline LVH (n=4)): −30.0±17.5 g/m^2
left ventricular posterior wall thickness ([6]; in vivo): stable for up to 24 months
decrease in interventricular septal wall thickness from baseline [6]: 5.2%
decrease in interventricular septal wall thickness from baseline ([6]; ±0.051, baseline 1.17 cm±0.057): 0.061 cm
GSRS Diarrhea, change from Baseline to Month 6 ([7]; All Patients, ITT-suitable, Stage 1 double-blind, p = 0.03): −0.3*^2
GSRS Abdominal Pain, change to Month 24 [7, 9]: −0.2 (−0.5, +0.1)
GSRS Constipation, change to Month 24 [7, 9]: −0.4 (−0.7, +0.0)*^5
GSRS Diarrhea, change from Baseline (DGJ) or Month 6 (Placebo) to Month 24 [7, 9]: −0.5 (−0.9, −0.1)*^4
GSRS Indigestion, change to Month 24 [7, 9]: −0.4 (−0.7, −0.04)*^4
GSRS Reflux, change to Month 24 [7, 9]: −0.2 (−0.5, 0.2)
GSRS Abdominal Pain, change from Baseline to Month 6 ([7]; All Patients, Stage 1): 0.0
GSRS Constipation, change from Baseline to Month 6 ([7]; All Patients, Stage 1): +0.1
GSRS Indigestion, change from Baseline to Month 6 ([7]; All Patients, Stage 1): −0.1
GSRS Reflux, change from Baseline to Month 6 ([7]; All Patients, Stage 1): −0.1
GSRS Abdominal Pain, change to Month 24 [7, 10]: −0.2 (−0.6, 0.1)
GSRS Constipation, change to Month 24 [7, 10]: −0.5 (−1.1, +0.0)*^5
GSRS Diarrhea, change to Month 24 [7, 10]: −1.0 (−1.5, −0.4)*^4
GSRS Indigestion, change to Month 24 [7, 10]: −0.5 (−0.8, −0.06)*^4
GSRS Reflux, change to Month 24 [7, 10]: −0.6 (−1.5, 0.2)
GSRS Abdominal Pain, change from Baseline to Month 6 [7, 11]: −0.1
GSRS Constipation, change from Baseline to Month 6 [7, 11]: +0.2
GSRS Diarrhea, change from Baseline to Month 6 [7, 11]: −0.6
GSRS Indigestion, change from Baseline to Month 6 [7, 11]: −0.2
GSRS Reflux, change from Baseline to Month 6 ([7]; Patients with Symptoms at BL, Stage 1, p = 0.047): −0.6*^3
patients with serious adverse events ([8]; Stage 1, DGJ arm): 2 patients
nasopharyngitis frequency ([8]; Stage 1, DGJ, 6/34 patients): 18%
headache frequency ([8]; Stage 1, DGJ, 12/34 patients): 35%
procedural pain frequency ([8]; Stage 2, 7/63 patients, related to kidney biopsies): 11%
headache frequency ([8]; Stage 2, 9/63 patients): 14%
serious adverse events possibly related to DGJ ([8]; fatigue and paresthesia, same patient, months 12-24, resolved): Two serious adverse events were assessed as possibly related to DGJ
deaths ([8]; in vivo): No deaths were reported
discontinuation due to adverse events ([8]; in vivo): No adverse events led to DGJ discontinuation
severity of adverse events ([8]; in vivo): Most adverse events were mild or moderate in severity
vital sign, physical findings, laboratory and ECG parameters ([8]; in vivo): did not reveal any clinically relevant effect of DGJ
bronchitis frequency [8, 12]: 11%
headache frequency [8, 12]: 11%
proteinuria frequency ([8]; open-label-extension, 9/57 patients): 16%
patients whose 24-hour urine protein remained stable during DGJ treatment ([8]; patients with baseline proteinuria <300 mg/24-h): 23/28
